Tests used:
[1] = system: Staphylococcus aureus S25 strain; assay: Bactericidal activity assay; assay type: cell-based; details: S. aureus, overnight at 37° C., inhibitor 1 to 100 μg/mL, CFU count
Procedure: 100 μL suspensions of S. aureus corresponding to 2.10^3 bacteria were incubated overnight at 37° C. with increasing concentrations of inhibitor (1 to 100 μg/mL). Bacterial killing (percent) was determined as the ratio of colony forming units after incubation with inhibitor to that of colony forming units after incubation with buffer alone. Data are mean values ±SD from three separate experiments. * indicates a statistical significance in Student's t-test of p<0.05.
The Staphylococcus aureus S25 strain, a human clinical isolate, was grown overnight in brain heart infusion (BHI) broth at 200 rpm and 37° C. Overnight cultures were diluted to OD600nm=0.05 in BHI-phosphate buffer saline (25% v/v). Bacteria were grown at 200 rpm and 37° C. until cultures reached OD600nm=0.5. Bacterial suspensions were adjusted to a concentration of 2.10^5 bacteriamL. In a microtiter plate, 2.10^3 bacteria were incubated overnight at 200 rpm and 37° C. with increasing concentrations of NADK inhibitor in 0.1 mL BHI-phosphate buffer saline (25% v/v) per well. To quantify the bactericidal activity, each bacterial suspension was serially diluted in BHI and plated on BHI agar plates in duplicates. Plates were incubated at 37° C. for 24 h to 48 h and the number of colony forming units was determined.

[2] = biological target: LmNADK1 (NADK from Lysteria monocytogenes) (Listeria monocytogenes serovar 1/2a (strain ATCC BAA-679 / EGD-e), UniProt Q8Y8D7); assay: NAD kinase activity assay (coupled Glucose-6-phosphate dehydrogenase, absorbance at 340 nm); assay type: biochemical; details: for Ki: Dixon plots, 4 mM ATP, NAD 0.2, 0.5 and 1 mM, read-out: Ki, NADK from Lm; for Inhibition of LmNADK1 (in words): purified enzyme
Procedure: (§1) Expression, purification and activity assay. His-tagged LmNADK1 wild-type and His-tagged SaNADK were expressed and purified on cobalt-based IMAC resins (Clontech) as previously published^13. The NAD kinase activity was determined by measuring the absorbance at 340 nm to follow the formation of reduced NADP produced by a coupling enzyme (Glucose-6-phosphate dehydrogenase from yeast). Coupling enzyme and its substrate were purchased from Sigma-Aldrich. The assay was performed in a 0.5 mL sample of (50 mM Tris-HCl pH 7.4, 10 mM MgCl2, 1 mM Glucose-6-phosphate, 2 mM sodium citrate) containing Glucose-6-phosphate dehydrogenase and NADK at 30° C. using a spectrophotometer Eppendorf ECOM 6122.
(§2) For inhibitor assays, IC50 was determined, in the presence of 1 mM NAD and 4 mM ATP (for LmNADK1) or 2 mM ATP (for SaNADK). Dixon plots were used to determine KI in the presence of 4 mM ATP (for LmNADK11) or 2 mM ATP (for Sa NADK) and three NAD concentrations (0.2, 0.5 and 1 mM). It was also checked that the inhibitors had no effect on the coupling enzyme activity.

[3] = biological target: SaNADK (NADK from Staphylococcus aureus) (Staphylococcus aureus (strain COL), UniProt Q5HH78); assay: as above; assay type: biochemical; details: Dixon plots; 2 mM ATP; NAD 0.2, 0.5 and 1 mM; read-out: Ki, NADK from Sa
Procedure: as §1, §2

[4] = system: Staphylococcus aureus S25 strain; details: reference value for comparison; cited from earlier work
[5] = biological target: NADK from Listeria monocytogenes (Listeria monocytogenes serovar 1/2a (strain ATCC BAA-679 / EGD-e), UniProt Q8Y8D7); details: literature value; read-out: K (affinity), inhibition of NADK; cited from earlier work

Compound | Concentration giving significant bactericidal activity [1] [µg/mL] | Ki [2] [µM] | Inhibition of LmNADK1 (in words) [2] | Ki [3] [µM] | Efficiency of reference compound (bactericidal concentration) [4] [µg/mL] | Ki [5] [µM]
5′-Amino-5′-deoxyadenosin-8-yl-thio-N-[(5′-amino-5′-deoxy-adenosine)methyl]acetamide [Inhibitor 17] | 1 | 30 | micromolar range | 50 | – | –
8-[3-(Adenosin-5′-yl)methoxyprop-1-yn-1-yl]adenosine [Inhibitor 22] | 1 | 20 | micromolar range | 15 | – | –
Nc1ncnc2c1ncn2[C@@H]1O[C@H](CNCC#Cc2nc3c(N)ncnc3n2[C@@H]2O[C@H](CO)[C@@H](O)[C@H]2O)[C@@H](O)[C@H]1O [Inhibitor 19, 8-[3-N-(5′-Deoxyadenosin-5′-yl)aminoprop-1-yn-1-yl]adenosine] | 10 | 10 | micromolar range | 5 | – | –
CN[C@H](CC(C)C)C(=O)N[C@H]1C(=O)N[C@@H](CC(N)=O)C(=O)N[C@H]2C(=O)N[C@H]3C(=O)N[C@H](C(=O)N[C@H](C(=O)O)c4cc(O)cc(O)c4-c4cc3ccc4O)[C@H](O)c3ccc(c(Cl)c3)Oc3cc2cc(c3O[C@@H]2O[C@H](CO)[C@@H](O)[C@H](O)[C@H]2O[C@H]2C[C@](C)(N)[C@H](O)[C@H](C)O2)Oc2ccc(cc2Cl)[C@H]1O [vancomycin] | – | – | – | – | 8 | –
Di-5′-thioadenosine [DTA] | – | – | – | – | – | ~20
